Source: PubChem BioAssay (NCI)
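Compound exposure: 48 hours, 5 concentrations, 96-well plates. GI50: concentration for 50% inhibition of growth. TGI: concentration producing complete growth inhibition.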

Tests used:
Assay in all cases: inhibition of tumour cell growth, NCI panel, 48 h
IGROV1 ovarian = test system: IGROV1 ovarian
UACC-62 melanoma = test system: UACC-62 melanoma
NCI/ADR-RES ovarian = test system: NCI/ADR-RES ovarian
SK-MEL-2 melanoma = test system: SK-MEL-2 melanoma
NCI-H522 lung = test system: NCI-H522 lung
SF-295 CNS = test system: SF-295 CNS
SK-OV-3 ovarian = test system: SK-OV-3 ovarian
MALME-3M melanoma = test system: MALME-3M melanoma
U251 CNS = test system: U251 CNS
UO-31 renal = test system: UO-31 renal
SF-268 CNS = test system: SF-268 CNS
HL-60(TB) leukemia = test system: HL-60(TB) leukemia
HS 578T breast = test system: HS 578T breast
OVCAR-4 ovarian = test system: OVCAR-4 ovarian
OVCAR-5 ovarian = test system: OVCAR-5 ovarian
MDA-MB-231 breast = test system: MDA-MB-231 breast
NCI-H460 lung = test system: NCI-H460 lung
A549 NSCLC = test system: A549 NSCLC
OVCAR-3 ovarian = test system: OVCAR-3 ovarian
HT29 colon = test system: HT29 colon
HOP-62 NSCLC = test system: HOP-62 NSCLC
EKVX NSCLC = test system: EKVX NSCLC
MDA-MB-435 = test system: MDA-MB-435
HCC-2998 colon = test system: HCC-2998 colon
SNB-19 CNS = test system: SNB-19 CNS
PC-3 prostate = test system: PC-3 prostate
RXF 393 renal = test system: RXF 393 renal
BT-549 breast = test system: BT-549 breast
SF-539 CNS = test system: SF-539 CNS
COLO 205 colon = test system: COLO 205 colon
ACHN renal = test system: ACHN renal
UACC-257 melanoma = test system: UACC-257 melanoma
K-562 leukemia = test system: K-562 leukemia
SW-620 colon = test system: SW-620 colon
TK-10 renal = test system: TK-10 renal
HOP-92 NSCLC = test system: HOP-92 NSCLC
HCT-15 colon = test system: HCT-15 colon
M14 melanoma = test system: M14 melanoma
RPMI-8226 leukemia = test system: RPMI-8226 leukemia
OVCAR-8 ovarian = test system: OVCAR-8 ovarian
LOX IMVI melanoma = test system: LOX IMVI melanoma
SK-MEL-5 melanoma = test system: SK-MEL-5 melanoma
NCI-H23 lung = test system: NCI-H23 lung
SR leukemia = test system: SR leukemia
MCF7 breast = test system: MCF7 breast
DU-145 prostate = test system: DU-145 prostate
SK-MEL-28 melanoma = test system: SK-MEL-28 melanoma
NCI-H226 lung = test system: NCI-H226 lung
A498 renal = test system: A498 renal
SN12C renal = test system: SN12C renal
SNB-75 CNS = test system: SNB-75 CNS
KM12 colon = test system: KM12 colon
CAKI-1 renal = test system: CAKI-1 renal
T-47D breast = test system: T-47D breast
MDA-MB-468 breast = test system: MDA-MB-468 breast
MOLT-4 leukemia = test system: MOLT-4 leukemia

Work on `CC(=O)Nc1ccc(-c2cn(-c3cccc(C(=O)Nc4ccc(Cl)c(C(F)(F)F)c4)c3)nn2)cn1` yielded a GI50 (IGROV1 ovarian) of 1700 nM, a TGI (IGROV1 ovarian) of 3360 nM and a GI50 (UACC-62 melanoma) of 1290 nM. For the same compound, the TGI (UACC-62 melanoma) was 2790 nM, the GI50 (NCI/ADR-RES ovarian) was 3500 nM and the TGI (NCI/ADR-RES ovarian) was 17800 nM. It also gave a GI50 (SK-MEL-2 melanoma) of 1650 nM, a TGI (SK-MEL-2 melanoma) of 3780 nM and a GI50 (NCI-H522 lung) of 1710 nM. It also gave a TGI (NCI-H522 lung) of 3600 nM, a GI50 (SF-295 CNS) of 1510 nM and a TGI (SF-295 CNS) of 2910 nM. The GI50 (SK-OV-3 ovarian) was 2010 nM, the TGI (SK-OV-3 ovarian) was 5170 nM and the GI50 (MALME-3M melanoma) was 559 nM. The TGI (MALME-3M melanoma) was 1950 nM, the GI50 (U251 CNS) was 1850 nM and the TGI (U251 CNS) was 3590 nM. It also gave a GI50 (UO-31 renal) of 1640 nM, a TGI (UO-31 renal) of 3540 nM and a GI50 (SF-268 CNS) of 2300 nM. For the same compound, the TGI (SF-268 CNS) was 5730 nM, the GI50 (HL-60(TB) leukemia) was 824 nM and the TGI (HL-60(TB) leukemia) was over 100000 nM. For the same compound, the GI50 (HS 578T breast) was 2030 nM, the TGI (HS 578T breast) was 7010 nM and the GI50 (OVCAR-4 ovarian) was 2530 nM. For the same compound, the TGI (OVCAR-4 ovarian) was 7390 nM, the GI50 (OVCAR-5 ovarian) was 1930 nM and the TGI (OVCAR-5 ovarian) was 4860 nM. For the same compound, the GI50 (MDA-MB-231 breast) was 1090 nM, the TGI (MDA-MB-231 breast) was 2390 nM and the GI50 (NCI-H460 lung) was 1500 nM. The TGI (NCI-H460 lung) was 3050 nM, the GI50 (A549 NSCLC) was 1860 nM and the TGI (A549 NSCLC) was 3860 nM. The GI50 (OVCAR-3 ovarian) was 1920 nM, the TGI (OVCAR-3 ovarian) was 3620 nM and the GI50 (HT29 colon) was 1430 nM. The TGI (HT29 colon) was 3090 nM, the GI50 (HOP-62 NSCLC) was 1670 nM and the TGI (HOP-62 NSCLC) was 3490 nM. The GI50 (EKVX NSCLC) was 1890 nM, the TGI (EKVX NSCLC) was 3920 nM and the GI50 (MDA-MB-435) was 1390 nM. It also gave a TGI (MDA-MB-435) of 3050 nM, a GI50 (HCC-2998 colon) of 1870 nM and a TGI (HCC-2998 colon) of 4020 nM. It also gave a GI50 (SNB-19 CNS) of 2240 nM, a TGI (SNB-19 CNS) of 4700 nM and a GI50 (PC-3 prostate) of 1830 nM. The TGI (PC-3 prostate) was 5210 nM, the GI50 (RXF 393 renal) was 1690 nM and the TGI (RXF 393 renal) was 3500 nM. It also gave a GI50 (BT-549 breast) of 1690 nM, a TGI (BT-549 breast) of 3500 nM and a GI50 (SF-539 CNS) of 1440 nM. For the same compound, the TGI (SF-539 CNS) was 2820 nM, the GI50 (COLO 205 colon) was 1470 nM and the TGI (COLO 205 colon) was 3450 nM. The GI50 (ACHN renal) was 1930 nM, the TGI (ACHN renal) was 4040 nM and the GI50 (UACC-257 melanoma) was 1560 nM. For the same compound, the TGI (UACC-257 melanoma) was 3500 nM, the GI50 (K-562 leukemia) was 1320 nM and the TGI (K-562 leukemia) was 5890 nM. It also gave a GI50 (SW-620 colon) of 1570 nM, a TGI (SW-620 colon) of 3290 nM and a GI50 (TK-10 renal) of 2300 nM. The TGI (TK-10 renal) was 4680 nM, the GI50 (HOP-92 NSCLC) was 1580 nM and the TGI (HOP-92 NSCLC) was 3600 nM. For the same compound, the GI50 (HCT-15 colon) was 2020 nM, the TGI (HCT-15 colon) was 4280 nM and the GI50 (M14 melanoma) was 1120 nM. For the same compound, the TGI (M14 melanoma) was 3460 nM, the GI50 (RPMI-8226 leukemia) was 2500 nM and the TGI (RPMI-8226 leukemia) was 34700 nM. The GI50 (OVCAR-8 ovarian) was 2020 nM, the TGI (OVCAR-8 ovarian) was 4660 nM and the GI50 (LOX IMVI melanoma) was 1390 nM. The TGI (LOX IMVI melanoma) was 2720 nM, the GI50 (SK-MEL-5 melanoma) was 1900 nM and the TGI (SK-MEL-5 melanoma) was 4300 nM. It also gave a GI50 (NCI-H23 lung) of 1520 nM, a TGI (NCI-H23 lung) of 2980 nM and a GI50 (SR leukemia) of 1860 nM. For the same compound, the TGI (SR leukemia) was over 100000 nM, the GI50 (MCF7 breast) was 1820 nM and the TGI (MCF7 breast) was 4120 nM. The GI50 (DU-145 prostate) was 2830 nM, the TGI (DU-145 prostate) was 8430 nM and the GI50 (SK-MEL-28 melanoma) was 1350 nM. The TGI (SK-MEL-28 melanoma) was 2820 nM, the GI50 (NCI-H226 lung) was 1870 nM and the TGI (NCI-H226 lung) was 3780 nM. For the same compound, the GI50 (A498 renal) was 2900 nM, the TGI (A498 renal) was 5460 nM and the GI50 (SN12C renal) was 1770 nM. It also gave a TGI (SN12C renal) of 3490 nM, a GI50 (SNB-75 CNS) of 1610 nM and a TGI (SNB-75 CNS) of 4470 nM. It also gave a GI50 (KM12 colon) of 1810 nM, a TGI (KM12 colon) of 6370 nM and a GI50 (CAKI-1 renal) of 1780 nM. For the same compound, the TGI (CAKI-1 renal) was 3540 nM, the GI50 (T-47D breast) was 2470 nM and the TGI (T-47D breast) was 7930 nM. For the same compound, the GI50 (MDA-MB-468 breast) was 1450 nM, the TGI (MDA-MB-468 breast) was 3020 nM and the GI50 (MOLT-4 leukemia) was 2620 nM. For the same compound, the TGI (MOLT-4 leukemia) was 7990 nM.
